Here are results for 54 compounds from patent US11236086B2, “Substituted pyrrolopyridines as inhibitors of activin receptor-like kinase” (BLUEPRINT MEDICINES CORPORATION, priority 2017, dated 2022).

Each structure is given as a SMILES string.

This experiment deals with T1, ALK2R206H (mutant ALK2, N-terminally tagged with GST) (Homo sapiens, UniProt Q04771, R206H).
T1 construct: purchased Carna Bioscience or ThermoFisher 09-148 or PV6232
T1 sequence (Q04771 21-509 R206H): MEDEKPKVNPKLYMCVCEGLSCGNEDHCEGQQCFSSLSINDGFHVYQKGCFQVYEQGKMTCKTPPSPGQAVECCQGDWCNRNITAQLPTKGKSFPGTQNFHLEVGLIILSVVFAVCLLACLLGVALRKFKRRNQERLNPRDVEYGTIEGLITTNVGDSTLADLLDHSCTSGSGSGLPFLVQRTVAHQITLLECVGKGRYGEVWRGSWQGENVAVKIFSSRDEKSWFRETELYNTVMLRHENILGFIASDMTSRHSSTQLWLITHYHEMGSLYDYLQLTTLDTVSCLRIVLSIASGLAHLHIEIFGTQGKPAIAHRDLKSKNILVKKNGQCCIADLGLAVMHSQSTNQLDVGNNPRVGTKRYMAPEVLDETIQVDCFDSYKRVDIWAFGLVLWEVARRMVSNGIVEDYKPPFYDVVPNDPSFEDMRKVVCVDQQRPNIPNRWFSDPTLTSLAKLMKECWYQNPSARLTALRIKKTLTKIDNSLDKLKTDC
The experiment is described as follows: ALK binding assay (LANTHASCREEN TR-FRET competitive binding, displacement of Kinase Tracer 178). The settings on record: read-out: Binding Assay (IC50 class). The procedure: Example 10 ALK Binding Assays
Binding assays were conducted using the LANTHASCREEN® technology (ThermoFisher Scientific). LANTHASCREEN® is a competitive binding, displacement assay where the assumed steady state occupancy of the binding site is measured using a time-resolved, fluorescence energy transfer (TR-FRET) readout between a fluorescent tracer and Europium (Eu)-tagged antibody specific for the kinase or expression tag (e.g., GST) of interest. Displacement of the tracer by a compound of the disclosure reduces, and is directly proportional to, the TR-FRET between the tracer and the antibody. Tracer was used at a concentration equal to or near to its Kd for the kinase. The Eu-tagged antibody was typically used in excess to ensure sampling of all competent protein capable of binding the tracer.
For these assays, a mutant ALK2 was used that was N-terminally tagged with GST (ALK2R206H Carna Bioscience (09-148) or ALK2R206H ThermoFisher (PV6232)); a Eu-tagged anti-GST antibody (ThermoFisher) and Kinase Tracer 178 (ThermoFisher).
In all cases, the kinase (2-5 nM) was mixed with Eu-tagged antibody (4-10 nM) mix and tracer (50 nM) were incubated with test compound titrations prepared in 100% DMSO (1% DMSO final) for 30 minutes at room temperature. All reagents and compounds were dissolved in Kinase Buffer A (ThermoFisher) to achieve the final concentration. The plates were read on a PerkinElmer EnVision® multilabel plate reader or a BioTek Synergy Neo plate reader, and the assay signal was represented as a ratio of the TR-FRET emission (λex 330 nm, λ^em […] and λ^em 665 nm). This readout was normalized to 0% and 100% inhibited control wells, plotted against inhibitor concentration, and fitted to a 4-parameter log dose response curve.
The results of this assay are shown in Table 3 in the column labelled “Binding Assay” wherein “A” represents an IC50 of less than or equal to 10 nM; “B” represents an IC50 of greater than 10 nM and less than or equal to 50 nM; and “C” represents an IC50 of greater than 50 nM. Blank values in the table indicate that the particular compound was not tested in this assay.
For orientation: IC50 means the concentration that gives 50% inhibition. `Cc1ccc(-c2cc3c(N4CCN(C(=O)OC5COC5)CC4)ccnc3[nH]2)s1` [Compound 168]: the IC50 was ≤ 10 nM.
With `Cc1nnc(-c2cc3c(N4CCN(C(=O)OC5COC5)CC4)ccnc3[nH]2)s1` [Compound 181], the IC50 is ≤ 10 nM.
For the compound `Cc1nsc(-c2cc3c(N4CCN(C(=O)OC5COC5)CC4)ccnc3[nH]2)n1` [Compound 182], the concentration for half-maximal inhibition (IC50) fell in the range of 10 to 50 nM.
In the case of `CCC(=O)c1ccc(-c2cc3c(N4CCN(C(=O)C5CC5)CC4)ccnc3[nH]2)cc1` [Compound 184], the 50% inhibitory concentration (IC50) is ≤ 10 nM.
Consider `CCCOc1ccc(-c2cc3c(N4CCN(C(=O)C5CC5)CC4)ccnc3[nH]2)cc1` [Compound 196], for which the IC50 is 10 to 50 nM.
`Cn1cc(-c2cc3c(N4CCN(C(=O)CCC5CCCC5)CC4)ccnc3[nH]2)cn1` [Compound 206]: the IC50 is 10 to 50 nM.
For `Cn1cc(-c2cc3c(N4CCN(C(=O)OC5COC5)CC4)ccnc3[nH]2)c(C#N)n1` [Compound 209], the 50% inhibitory concentration (IC50) was ≤ 10 nM.
`Cn1cc(C#N)c(-c2cc3c(N4CCN(C(=O)OC5COC5)CC4)ccnc3[nH]2)n1` [Compound 211]: the concentration for half-maximal inhibition (IC50) was > 50 nM.
As to `Cc1nc(-c2[nH]c3nccc(N4CCN(C(=O)OC5COC5)CC4)c3c2C#N)co1` [Compound 216], the IC50 is ≤ 10 nM.
Take `Cc1ncc(-c2[nH]c3nccc(N4CCN(C(=O)OC5COC5)CC4)c3c2C#N)o1` [Compound 217]: the half-maximal inhibitory concentration (IC50) was ≤ 10 nM.
`CC(C)(O)Cn1cc(-c2cc3c(N4CCN(C(=O)C5CC5)CC4)ccnc3[nH]2)cn1` [Compound 222]: the half-inhibitory concentration (IC50) was ≤ 10 nM.
For the compound `Cn1cc(-c2cc3c(N4CCN(C(=O)[C@H]5CC[C@@H](O)CC5)CC4)ccnc3[nH]2)cn1` [Compound 223], the IC50 fell in the range of 10 to 50 nM.
As for `CCc1ccc(-c2cc3c(N4CCN(C(=O)C5CC5)CC4)ccnc3[nH]2)c(Cl)c1` [Compound 226], the IC50 was in the range of 10 to 50 nM.
Under `N#Cc1ncc(-c2cc3c(N4CCN(C(=O)OC5COC5)CC4)ccnc3[nH]2)s1` [Compound 229] stands ≤ 10 nM.
Turning to `N#Cc1csc(-c2cc3c(N4CCN(C(=O)OC5COC5)CC4)ccnc3[nH]2)n1` [Compound 230], the half-inhibitory concentration (IC50) was ≤ 10 nM.
As to `CCc1c(-c2cc3c(N4CCN(C(=O)OC5COC5)CC4)ccnc3[nH]2)cnn1C` [Compound 235], the half-maximal inhibitory concentration (IC50) was ≤ 10 nM.
Regarding `Cn1cc(-c2cc3c(N4CCN(C(=O)OCC5(C)COC5)CC4)ccnc3[nH]2)cn1` [Compound 236], the concentration for half-maximal inhibition (IC50) is ≤ 10 nM.
`CCc1c(-c2cnn(C)c2)[nH]c2nccc(N3CCN(C(=O)OC4COC4)CC3)c12` [Compound 237]: the half-maximal inhibitory concentration (IC50) was ≤ 10 nM.
For the compound `Cn1cc(-c2cc3c(N4CCN(C(=O)OCC5CCCO5)CC4)ccnc3[nH]2)cn1` (stereo not drawn) [Compound 238], the IC50 is ≤ 10 nM.
With `CC(C)c1[nH]ncc1-c1cc2c(N3CCN(C(=O)OC4COC4)CC3)ccnc2[nH]1` [Compound 239], the IC50 is > 50 nM.
For the compound `Cn1cc(-c2cc3c(N4CCN(C(=O)OCCC(C)(C)C)CC4)ccnc3[nH]2)cn1` [Compound 240], the IC50 lay within 10 to 50 nM.
In the case of `CCOCC(C)OC(=O)N1CCN(c2ccnc3[nH]c(-c4cnn(C)c4)cc23)CC1` (stereo not drawn) [Compound 246], the concentration for half-maximal inhibition (IC50) was ≤ 10 nM.
Regarding `CC(C)OCCOC(=O)N1CCN(c2ccnc3[nH]c(-c4cnn(C)c4)cc23)CC1` [Compound 247], the IC50 is ≤ 10 nM.
`O=C(C1CC1)N1CCN(c2ccnc3[nH]c(-c4ccc(C(F)(F)F)cc4)cc23)CC1` [Compound 253]: the concentration for half-maximal inhibition (IC50) lay within 10 to 50 nM.
Turning to `Cc1nc(-c2cc3c(N4CCN(C(=O)OC5CSC5)CC4)ccnc3[nH]2)cs1` [Compound 261], the IC50 is ≤ 10 nM.
Turning to `Cn1cc(-c2[nH]c3nccc(N4CCN(C(=O)OC5COC5)CC4)c3c2C2CC2)cn1` [Compound 293], the concentration for half-maximal inhibition (IC50) is ≤ 10 nM.
On to `Cn1cc(-c2cc3c(N4CCN(C(=O)OCC5CCCCO5)CC4)ccnc3[nH]2)cn1` (stereo not drawn) [Compound 306], for which the IC50 was ≤ 10 nM.
In the case of `CCOc1ccc(-c2cc3c(N4CCN(C(=O)C5CC5)CC4)ccnc3[nH]2)c(Cl)c1` [Compound 309], the concentration for half-maximal inhibition (IC50) is > 50 nM.
On to `Cn1cc(-c2cc3c(N4CCN(C(=O)OCCOC(C)(C)C)CC4)ccnc3[nH]2)cn1` [Compound 314], for which the half-inhibitory concentration (IC50) was ≤ 10 nM.
As for `Cc1nc(-c2[nH]c3nccc(N4CCN(C(=O)OC5COC5)CC4)c3c2C)sc1C` [Compound 318], the IC50 was ≤ 10 nM.
As to `O=C(C1CC1)N1CCN(c2ccnc3[nH]c(-c4ccc(C5CCCCC5)cc4)cc23)CC1` [Compound 319], the half-inhibitory concentration (IC50) lay within 10 to 50 nM.
Then `Cc1nc(-c2cc3c(N4CCN(C(=O)O[C@H]5CCC5(F)F)CC4)ccnc3[nH]2)cn1C` [Compound 327], with ≤ 10 nM; and `Cn1cc(-c2cc3c(N4CCN(C(=O)OCCS(C)(=O)=O)CC4)ccnc3[nH]2)cn1` [Compound 338], with 10 to 50 nM; and `CCOC(=O)N1CCN(c2ccnc3[nH]c(-c4cnn(C)c4)c(S(C)(=O)=O)c23)CC1` [Compound 339], with 10 to 50 nM.
Take `COc1cnc(-c2cc3c(N4CCN(C(=O)OC5COC5)CC4)ccnc3[nH]2)c(C#N)c1` [Compound 346]: the half-maximal inhibitory concentration (IC50) was ≤ 10 nM.
Under `CC(=O)Nc1ccc(-c2cc3c(N4CCN(C(=O)OC5COC5)CC4)ccnc3[nH]2)nc1` [Compound 353] stands 10 to 50 nM; under `Cc1nc(-c2[nH]c3nccc(N4CCN(C(=O)OC5COC5)CC4)c3c2C#N)sc1C` [Compound 360], ≤ 10 nM.
As to `O=C(C1CC1)N1CCN(c2ccnc3[nH]c(-c4ccc(Oc5ccccc5)cc4)cc23)CC1` [Compound 361], the half-inhibitory concentration (IC50) was in the range of 10 to 50 nM.
As for `CC(C)Oc1ccc(-c2cc3c(N4CCN(C(=O)C5CC5)CC4)ccnc3[nH]2)c(Cl)c1` [Compound 364], the half-maximal inhibitory concentration (IC50) was in the range of 10 to 50 nM.
Consider `CC(C)(C)c1cnc(-c2cc3c(N4CCN(C(=O)OC5COC5)CC4)ccnc3[nH]2)s1` [Compound 373], for which the half-maximal inhibitory concentration (IC50) lay in the range of 10 to 50 nM.
Under `CC(C)(O)c1csc(-c2cc3c(N4CCN(C(=O)OC5COC5)CC4)ccnc3[nH]2)n1` [Compound 379] stands ≤ 10 nM; under `CCS(=O)(=O)CCOC(=O)N1CCN(c2ccnc3[nH]c(-c4cnn(C)c4)cc23)CC1` [Compound 384], 10 to 50 nM; under `Cc1nc(-c2[nH]c3nccc(N4CCN(C(=O)OC5COC5)CC4)c3c2Cl)sc1C` [Compound 391], ≤ 10 nM.
Take `O=C(C1CC1)N1CCN(c2ccnc3[nH]c(-c4ccc(C(F)(F)F)cc4Cl)cc23)CC1` [Compound 393]: the IC50 was > 50 nM.
`Cn1cnc(-c2cc3c(N4CCN(C(=O)O[C@@H]5CC(F)(F)C5(F)F)CC4)ccnc3[nH]2)c1` [Compound 400]: the 50% inhibitory concentration (IC50) is ≤ 10 nM.
`Cn1cnc(-c2cc3c(N4CCN(C(=O)O[C@H]5CC(F)(F)C5(F)F)CC4)ccnc3[nH]2)c1` [Compound 402]: the IC50 is ≤ 10 nM.
On to `CCC(=O)c1c(-c2cn(C)c(C)n2)[nH]c2nccc(N3CCN(C(=O)OC4COC4)CC3)c12` [Compound 404], for which the IC50 lay in the range of 10 to 50 nM.
In the case of `Cn1cc(-c2cc3c(N4CCN(C(=O)OCCOC5CCCCC5)CC4)ccnc3[nH]2)cn1` [Compound 405], the IC50 was ≤ 10 nM.
As to `O=C(C1CC1)N1CCN(c2ccnc3[nH]c(-c4ccc(OCc5ccccc5)cc4)cc23)CC1` [Compound 406], the IC50 was in the range of 10 to 50 nM.
On to `O=C(OC1COC1)N1CCN(c2ccnc3[nH]c(-c4ncc(C(F)(F)F)s4)cc23)CC1` [Compound 409], for which the half-maximal inhibitory concentration (IC50) was ≤ 10 nM.
In the case of `O=C(OC1COC1)N1CCN(c2ccnc3[nH]c(-c4nc(C(F)(F)F)cs4)cc23)CC1` [Compound 410, oxetan-3-yl 4-(2-(4-(trifluoromethyl)thiazol-2-yl)-1H-pyrrolo[2,3-b]pyridin-4-yl)piperazine-1-carboxylate], the half-inhibitory concentration (IC50) fell in the range of 10 to 50 nM.
Then `CCOC(=O)N1CCN(c2ccnc3[nH]c(-c4ccc(C5(OC)CCOCC5)cn4)cc23)CC1` [Compound 430], with ≤ 10 nM; and `O=C(OC1COC1)N1CCN(c2ccnc3[nH]c(-c4nc5c(s4)COCC5)c(Cl)c23)CC1` [Compound 443], with ≤ 10 nM; and `O=C(OC1COC1)N1CCN(c2ccnc3[nH]c(-c4csc(C(=O)N5CCCC5)n4)cc23)CC1` [Compound 448], with ≤ 10 nM.
